Data set [1] deals with T1, recombinant human 5-HT6 receptor (Homo sapiens, UniProt P50406).
T1 construct: expressed in transfected cells
Description: Determination of Kb values for 5-HT6 receptor (CHO pCRE-Luc reporter assay). It is filed as cell-based. The following applies: antagonism of 10 uM serotonin, luciferase reporter, CHO cells. The method, then: A stable CHO cell line expressing recombinant human 5-HT6 receptor and pCRE-Luc reporter system was used for cell-based assay. The assay offers a non-radioactive based approach to determine binding of a compound to GPCRs. In this specific assay, the level of intracellular cyclic AMP which is modulated by activation or inhibition of the receptor is measured. The recombinant cells harbor luciferase reporter gene under the control of cAMP response element.
The above cells were grown in 96 well clear bottom white plates in Hams F12 medium containing 10% fetal bovine serum (FBS). Prior to the addition of compounds and/or agonist, cells were serum starved overnight. Increasing concentrations of test compounds were added along with 10 uM serotonin in Hams F12 medium containing 1% dialyzed FBS to the cells. The incubation was continued at 37° C. in CO2 incubator for 4 hours. Medium was removed and cells were washed with phosphate buffered saline. The cells were lysed and luciferase activity was measured in a Luminometer. Luminescence units were plotted against the compound concentrations using Graphpad software. EC50 values of the compounds were defined as the concentration required reducing the luciferase activity by 50%. The Kb values were calculated by feeding the concentration of the agonist used in the assay and its EC50 value in the same software.
A general note: A reporter such as luciferase makes a cellular process visible.

Data set [2] can be described thus: Object recognition task model. It counts as in vivo. The following applies: rat, 10 mg/kg, p.o. The method, then: The cognition-enhancing properties of compounds of this invention were estimated using a model of animal cognition: the object recognition task model.
Male Wister rats (230-280 grams) obtained from N.I.N. (National Institute of Nutrition, Hyderabad, India) was used as experimental animals. Four animals were housed in each cage. Animals were kept on 20% food deprivation before one day and given water ad libitum throughout the experiment and maintained on a 12 hours light/dark cycle. Also the rats were habituated to individual arenas for 1 hour in the absence of any objects.
One group of 12 rats received vehicle (1 mL/Kg) orally and another set of animals received compound of the formula (I) either orally or i.p., before one hour of the familiar (T1) and choice trial (T2).
The experiment was carried out in a 50×50×50 cm open field made up of acrylic. In the familiarization phase, (T1), the rats were placed individually in the open field for 3 minutes, in which two identical objects (plastic bottles, 12.5 cm height×5.5 cm diameter) covered in yellow masking tape alone (a1 and a2) were positioned in two adjacent corners, 10 cm. from the walls. After 24 hours of the (T1) trial for long-term memory test, the same rats were placed in the same arena as they were placed in T1 trial. Choice phase (T2) rats were allowed to explore the open field for 3 minutes in presence of one familiar object (a3) and one novel object (b) (Amber color glass bottle, 12 cm high and 5 cm in diameter). Familiar objects presented similar textures, colors and sizes. During the T1 and T2 trial, explorations of each object (defined as sniffing, licking, chewing or having moving vibrissae whilst directing the nose towards the object at a distance of less than 1 cm) were recorded separately by stopwatch. Sitting on an object was not regarded as exploratory activity, however, it was rarely observed. T1 is the total time spent exploring the familiar objects (a1+a2). T2 is the total time spent exploring the familiar object and novel object (a3+b).
The object recognition test was performed as described by Ennaceur, A., Delacour, J., 1988, A new one-trial test for neurobiological studies of memory in rats—Behavioural data, Behav. Brain Res., 31, 47-59.

Data set [3] is described as follows: Water maze (scopolamine induced reversal). It is filed as in vivo. The following applies: rat, p.o. Here is the method: The water maze apparatus consisted of a circular pool (1.8 m diameter, 0.6 m high) constructed in black Perspex (TSE systems, Germany) filled with water (24±2° C.) and positioned underneath a wide-angled video camera to track animal. The 10 cm^2 perspex platform, lying 1 cm below the water surface, was placed in the centre of one of the four imaginary quadrants, which remained constant for all rats. The black Perspex used in the construction of the maze and platform offered no intramaze cues to guide escape behavior. By contrast, the training room offered several strong extramaze visual cues to aid the formation of the spatial map necessary for escape learning. An automated tracking system, [Videomot 2 (5.51), TSE systems, Germany] was employed. This program analyzes video images acquired via a digital camera and an image acquisition boards that determined path length, swim speed and the number of entries and duration of swim time spent in each quadrant of the water maze.

Data set [4] can be described thus: Rodent pharmacokinetic study. It counts as in vivo. The following applies: Wistar/Male rat, 10 mg/kg; for AUCt / Cmax / T1/2 / Tmax / AUC(0-t) / half-life: vehicle water (Ex. 8: 50% PEG 400); for bioavailability: Oral vs Intravenous. The method, then:
Male wistar rats (230-280 grams) obtained from NIN (National Institute of Nutrition, Hyderabad, India) were used as an experimental animal. Three to five animals were housed in each cage. Animals were kept fasted over night and maintained on a 12 hours light/dark cycle. Three rats were dosed NCE (10 mg/Kg) orally and intravenously on day 0 and day 2.
At each time point blood was collected by jugular vein. Plasma was stored frozen at −20° C. until analysis. The concentrations of the NCE compound in plasma were determined using LC-MS/MS method. Schedule time points: Pre dose 0.25, 0.5, 1, 1.5, 2, 3, 4, 6, 8, 10, 12 and 24 hours after dosing (n=3). The NCE compounds were quantified in plasma by validated LC-MS/MS method using solid phase extraction technique. NCE compounds were quantified in the calibration range of 2-2000 ng/mL in plasma. Study samples were analyzed using calibration samples in the batch and quality control samples spread across the batch.
Pharmacokinetic parameters Cmax, Tmax, AUCt, T1/2 and Bioavailability were calculated by non-compartmental model using software WinNonlin version 5.1.

For data set [5] the following is noted: in vivo; cited from earlier work.
[6] abbreviates: plasma, Intravenous, read-out: Cmax.
Setting [7] is: plasma, Intravenous, read-out: Tmax.
Setting [8] is: plasma, read-out: Bioavailability.

Where two headings read alike, the source gives them in different places.

T1 sequence (P50406 whole entry): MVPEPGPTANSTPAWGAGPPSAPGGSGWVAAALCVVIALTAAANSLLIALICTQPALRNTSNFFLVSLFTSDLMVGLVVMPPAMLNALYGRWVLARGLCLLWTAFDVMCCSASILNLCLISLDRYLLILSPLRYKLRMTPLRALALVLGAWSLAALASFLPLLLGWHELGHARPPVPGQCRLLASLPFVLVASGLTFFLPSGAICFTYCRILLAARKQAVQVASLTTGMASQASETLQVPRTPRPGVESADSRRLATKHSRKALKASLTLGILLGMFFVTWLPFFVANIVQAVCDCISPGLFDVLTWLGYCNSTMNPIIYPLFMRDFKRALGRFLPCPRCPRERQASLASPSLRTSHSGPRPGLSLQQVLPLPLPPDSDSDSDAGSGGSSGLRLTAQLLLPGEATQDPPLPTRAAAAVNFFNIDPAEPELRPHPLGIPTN

Turning to `Cc1ccc(S(=O)(=O)c2c[nH]c3cc(Cl)ccc23)cc1NC1CCN(C)CC1` [Example 1, N-[2-methyl-5-(6-chloro-1H-indole-3-ylsulfonyl)phenyl]-N-(1-methypiperidin-4-yl)amine], the Kb (as a rule, the affinity of an antagonist, worked out from how it opposes an agonist) in data set [1] came to 1.55 nM. In data set [2], the “Exploration time mean ± S.E.M, Familiar object” value amounted to 10.10 ± 1.84 s; the “Exploration time mean ± S.E.M, Novel object” value came to 13.22 ± 2.00 s; the Inference result is recorded as “Active”. The “Scopolamine Induced Reversal” value in data set [3] was “≦10 mg/kg, p.o”. Moreover, in data set [4] (Intravenous), the AUCt was determined as 2484 ± 853 ng·h/mL; the Cmax – broadly, the maximum level reached in the sampled fluid or tissue – is on record as 1644 ± 582 ng/mL; the T1/2 was found to be 5.23 ± 2.08 h; the Tmax – broadly, the time from dosing to the highest level – is on record as 0.14 ± 0.10 h. Also, the bioavailability (commonly the share of a dose that reaches the circulation, judged against a reference dose that is usually intravenous) in data set [4] amounted to 31 ± 12%. For the same compound, in data set [4] (Oral), the AUCt came to 750 ± 363 ng·h/mL, the Cmax is 128 ± 13 ng/mL, the T1/2 is given as 6.38 ± 1.38 h and the Tmax was 3.42 ± 2.74 h.

In the case of `CN1CCC(Nc2cc(S(=O)(=O)c3c[nH]c4cc(Cl)ccc34)ccc2Cl)CC1.Cl` [Example 8, N-(1-Methylpiperidin-4-yl)-N-[2-chloro-5-(6-chloro-1H-indole-3-ylsulfonyl)phenyl]amine hydrochloride], the melting point (in general, the temperature of the solid-liquid transition) was in the range of 189.7 to 194.2 °C. Also, the Kb in data set [1] was 5.7 nM. Also, in data set [4] (plasma, Intravenous), the AUC(0-t) (usually the area under the concentration-time curve up to a stated or last time point) came to 6950 ± 3450 ng·h/mL and the half-life (usually how long it takes for the measured level to halve) was 5.64 ± 0.95 h. The Cmax in data set [4] (setting [6]) was found to be 1340 ± 426 ng/mL. Moreover, the Tmax in data set [4] (setting [7]) worked out at 0.08 h. The bioavailability in data set [4] (setting [8]) came out at 58 ± 12%. In data set [4] (plasma, Oral), this compound gave an AUC(0-t) of 3810 ± 1340 ng·h/mL and a half-life of 9.06 ± 2.13 h. In addition, the Cmax in data set [4] (plasma, Oral, read-out: Cmax) was 327 ± 99 ng/mL. Moreover, the Tmax in data set [4] (plasma, Oral, read-out: Tmax) turned out to be 3 h.

`COc1ccc(S(=O)(=O)c2c[nH]c3cc(Cl)ccc23)cc1NC1CCNCC1` [Example 16, N-(Piperidin-4-yl)-N-[2-methoxy-5-(6-chloro-1H-Indole-3-ylsulfonyl)phenyl] amine] came in with a melting point of 208 to 208.9 °C. The antagonist equilibrium constant (Kb) in data set [1] came to 0.22 nM. Besides, in data set [2], the “Exploration time mean ± S.E.M, Familiar object” value was determined as 8.10 ± 1.78 s; the “Exploration time mean ± S.E.M, Novel object” value was 12.00 ± 1.84 s; the Inference entry is recorded as “Active”. For the same compound, the “Scopolamine Induced Reversal” value in data set [3] is reported as “≦10 mg/kg, p.o”.

Take `COc1ccc(S(=O)(=O)c2c[nH]c3cc(Cl)ccc23)cc1NC1CCN(C)CC1` [Example 17, N-(1-Methylpiperidin-4-yl)-N-[2-methoxy-5-(6-chloro-1H-Indole-3-ylsulfonyl)phenyl] amine]: the melting point lay within 88.6 to 91.6 °C. Further, the Kb in data set [1] was determined as 0.82 nM. Further, in data set [4] (plasma, Intravenous), the AUC(0-t) came out at 5730 ± 2620 ng·h/mL and the half-life was 3.86 ± 0.09 h. For the same compound, the Cmax in data set [4] (setting [6]) was 4220 ± 2250 ng/mL. Also, the Tmax in data set [4] (setting [7]) worked out at 0.08 h. Besides, the bioavailability in data set [4] (setting [8]) was determined as 24 ± 2%. In data set [4] (plasma, Oral), the exposure AUC(0-t) amounted to 1430 ± 734 ng·h/mL and the half-life is 1.86 ± 0.09 h. Further, the Cmax in data set [4] (plasma, Oral, read-out: Cmax) is 379 ± 160 ng/mL. In data set [4] (plasma, Oral, read-out: Tmax), the time to peak (Tmax) is 3 h.

With `COc1ccc(NS(=O)(=O)c2sc3ccc(Cl)cc3c2C)cc1N1CCNCC1` [SB-271046, 5-Chloro-N-(4-methoxy-3-piperazin-1-ylphenyl)-3-methyl-2-benzothiophenesulfonamide], the “activity in animal tests related to positive or negative symptoms of schizophrenia” value in data set [5] was “inactive”.
